Data taken from patent US20040234972A1, “Method for identifying and purifying smooth muscle progenitor cells” (priority 2001, published 2004).

Legend:
P19 cells = test: RA-induced SMC differentiation of parental P19 cells; assay type: cell-based, mouse; conditions: within 4 days
Description: P19 cells were obtained from American Type Culture Collection (CRL-1825). Cells were maintained in α-minimum essential medium (α-MEM, Sigma, M0644) supplemented with 7.5% fetal bovine serum (FBS), 200 μg/ml L-glutamine and penicillin/streptomycin (Lifetechnologies). For transfection and differentiation induction experiments, P19 cell cultures less than 6 passages from the initial culture obtained from ATCC were used. […] Cells were trypsinized and plated in a 10 cm dish in α-MEM containing 7.5% FBS and 1 μmol/L all trans-retinoic acid (Sigma, R2625) at a density of 10,000 cells/cm^2 (day 0). The culture medium was replaced once on day 2. On day 3, RA was removed from the culture medium. On day 4, cells were trypsinized and plated in two 10 cm dishes in the medium containing 0.5 ng/ml puromycin (Clontech). Except otherwise noted, samples for various analyses were prepared from cells treated with puromycin for two days. During puromycin selection, the medium was replaced every day.

A404 cells = test: RA-induced SMC differentiation of A404 cells, immunocytochemical staining; assay type: cell-based, mouse
Description: The culture methods for SMC differentiation are outlined in FIG. 1. Cells were trypsinized and plated in a 10 cm dish in α-MEM containing 7.5% FBS and 1 μmol/L all trans-retinoic acid (Sigma, R2625) at a density of 10,000 cells/cm^2 (day 0). The culture medium was replaced once on day 2. On day 3, RA was removed from the culture medium. On day 4, cells were trypsinized and plated in two 10 cm dishes in the medium containing […] puromycin (Clontech). Except otherwise noted, samples for various analyses were prepared from cells treated with puromycin for two days. During puromycin selection, the medium was replaced every day.
Western blot analysis was performed as previously described Regan et al., J. Clin Invest. 2000; 106:1139-47. SM-MHC expression was assessed using a rabbit anti-chicken SM-MHC antibody (1:200,000, a gift from Dr. U. Groschel-Stewart). The specificity of this antibody for mouse MHC isoforms has been thoroughly characterized. The antibody was not reactive with nonmuscle MHCs in Western blotting. Immnunocytochemical staining was performed using Vectastain ABC-AP kit (Vector Laboratories). Antibodies and dilutions used were 1:1000 anti-SM α-actin antibody (Sigma), 1:500 anti-SM-MHC antibody, and 1:1000 anti-neuron-specific β-tubulin antibody (TUJ1, Berkeley Antibody Company).

[1] = RA-treated A404 cells, after 2-days of puromycin treatment

CC1=C(/C=C/C(C)=C/C=C/C(C)=C/C(=O)O)C(C)(C)CCC1 [RA, all trans-retinoic acid]
cells estimated to differentiate into SMCs (P19 cells): 1-5%
α-actin negative neuron-like cells, fraction of total cell population (A404 cells; by 4 days after RA treatment, no puromycin): 10-20%
fraction of total A404 cell population stained positively for SM α-actin (A404 cells; by 4 days following RA treatment, no puromycin): > 80%

COc1ccc(C[C@H](N)C(=O)N[C@H]2[C@@H](O)[C@H](n3cnc4c(N(C)C)ncnc43)O[C@@H]2CO)cc1 [puromycin]
cells positive for TUJ1 (A404 cells; [1]): < 0.1%
fraction of neuron-like cells (A404 cells; [1]): 5-10%
number of neuronal cells (A404 cells; RA-treated A404 cells, five-days of puromycin treatment): less than 5%
cells stained positively for both SM α-actin and SM-MHC (A404 cells; RA-treated A404 cells, following 2 to 5-days treatment with puromycin): > 90%
